In PMC7279487, “Dual Target Ligands with 4-tert-Butylphenoxy Scaffold as Histamine H3 Receptor Antagonists and Monoamine Oxidase B Inhibitors” (International Journal of Molecular Sciences, 2020):

Assays:
[1] = tested on: neuroblastoma SH-SY5Y cells; assay: toxicity against SH-SY5Y cells; assay type: cell-based; details: 10 and 50 µM
Protocol: (§1) The used reference cytostatic drug doxorubicin (DX) decreased cell viability <50% under the same conditions at very low concentrations of 0.2 and 0.05 µM. […] Oxidative damage was induced by very high toxic levels of hydrogen peroxide (H2O2; 300 µM), the popular cell model for PD research, in neuroblastoma SH-SY5Y cell line. […] Salsolinol (SAL) was used at a concentration of 50 µM as the reference compound with the proven neuroprotection activity.
(§2) SH-SY5Y cells were seeded in microplate at a concentration of 2.5 × 10^4 cells/well in 100 μL culture medium and cultured for 24 h at 37 C and 5% CO2 to reach 70% confluence. […] (R,S)-salsolinol (purity ≥ 99%) was obtained from Cayman Chemical (Ann Arbor, MI, USA). Next, H2O2 was added at final concentration 300 μM and the cells were placed into the incubator. After 24 h of compounds co-incubation with H2O2, the CellTiter 96®AQueous Non-Radioactive Cell Proliferation Assay (MTS) labeling mixture was added to each well, and the microplates were incubated under the same conditions for 5 h. The absorbance was measured using a microplate reader EnSpire (PerkinElmer, Waltham, MA USA) at 490 nm. All measurements were performed in triplicate, and results are shown as mean ± SD.

[2] = tested on: haloperidol-induced catalepsy; assay: haloperidol-induced catalepsy, bar test; assay type: in vivo, Wistar rats; details: for Times of Observation of Catalepsy (s), 0 min / Times of Observation of Catalepsy (s), 3 min / Times of Observation of Catalepsy (s), 6 min: mean ± SEM (n = 6)
Protocol: (§3) Haloperidol (dopamine D2 antagonist)-induced catalepsy in rodents is a popular model for screening of antiparkinsonian activity of compounds [21]. Caused symptoms in animals are similar to the inability of PD patients to initiate movements. […] The reversal of catalepsy was tested for 6 min (3 times in 3 min intervals) after 1 h of haloperidol administration. As the reference compound was used MSX-3, the adenosine A2A receptor antagonist with confirmed ability to reverse catalepsy mediated by D1 and D2 receptor antagonists.
Haloperidol-induced catalepsy was not reduced by DL-76 administrated at a dose of 25 mg/kg body weight (Table 3). After administration of DL-76 at a dose of 50 mg/kg body weight, low antiparkinsonian activity in the bar test was observed. […] This effect was weaker than the anti-Parkisonian activity of MSX-3.
(§4) The experiments were carried out on male rats Wistar (180–220 g). Animals were housed in plastic cages in room at a constant temperature of 20 ± 2 °C with natural light–dark cycles. The animals had free access to standard pellet diet and water and were used after a minimum of 3 days of acclimatization to the housing conditions. Control and experimental groups consisted of 6 animals each. All experimental procedures were performed according to the European Union Directive of 22 September 2010 (2010/63/EU) and Polish legislation concerning animal care and use and was approved by the Local Ethics Committee for Experiments on Animals in Kraków, Poland (Resolution No. 70/2014, approval date: 20 May 2014). The examined compound was administered as the suspension in 0.5% methylcellulose in constant volume of 10 mL/kg.
(§5) Antiparkinsonian activity in catalepsy tests was performed as described in [28]. Haloperidol was administered s.c. at a dose of 0.63 mg/kg, which in 100% of control animals caused catalepsy. Tested compounds were administered i.p. at the doses 50 and 25 mg/kg body weight, 5 min after haloperidol injection. After 60 min from the injection of haloperidol, to assess the occurrence of catalepsy, the animals were placed in a forced position and the time they remained in this position was measured. Two tests were performed to determine the antiparkinsonian activity: crossed leg position test and bar test. In the first test, the animals were put on the hind paws behind the front (forced position); in the second, the animals were supported on a wooden block (the front paws were placed on a block suspended 10 cm above the ground). Then, the time that the animals remain is measured in a forced position (time was measured to a maximum of 60 s). Observation was carried out 3 times in 3-min intervals. The shortening of the time of catalepsy to the control group was adopted for the antiparkinsonian activity.

[3] = tested on: haloperidol-induced catalepsy; assay: haloperidol-induced catalepsy, crossed-leg position test; assay type: in vivo, Wistar rats; details: for Times of Observation of Catalepsy (s), 0 min / Times of Observation of Catalepsy (s), 3 min / Times of Observation of Catalepsy (s), 6 min: mean ± SEM (n = 6)
Protocol: as §3, §4, §5

hMAO B = target: T1, hMAO B (Homo sapiens, UniProt P27338); assay: hMAO B inhibition, fluorometric Amplex Red MAO assay; assay type: biochemical
T1 construct: purchased Sigma Aldrich M7441
T1 sequence (P27338 1-520): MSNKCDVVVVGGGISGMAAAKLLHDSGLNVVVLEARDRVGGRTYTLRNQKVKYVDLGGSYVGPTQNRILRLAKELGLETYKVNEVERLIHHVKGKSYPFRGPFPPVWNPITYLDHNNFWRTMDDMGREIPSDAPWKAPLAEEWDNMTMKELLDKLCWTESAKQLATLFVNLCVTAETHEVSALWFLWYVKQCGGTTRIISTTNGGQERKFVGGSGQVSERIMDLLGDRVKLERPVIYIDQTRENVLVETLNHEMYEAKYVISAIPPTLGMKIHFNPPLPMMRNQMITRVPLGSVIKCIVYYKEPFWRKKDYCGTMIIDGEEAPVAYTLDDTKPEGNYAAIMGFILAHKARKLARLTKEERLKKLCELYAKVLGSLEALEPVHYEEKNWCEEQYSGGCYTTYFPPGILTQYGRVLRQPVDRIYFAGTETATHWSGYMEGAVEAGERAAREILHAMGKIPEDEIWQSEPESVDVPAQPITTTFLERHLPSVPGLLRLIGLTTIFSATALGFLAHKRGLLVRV

[4] = tested on: neuroblastoma SH-SY5Y cells; assay: neuroprotection in H2O2-treated SH-SY5Y cells (MTS); assay type: cell-based; details: H2O2 300 µM, 24 h
Protocol: as §1, §2

[5] = concentration used in kinetic studies

Which results are given for `CC(C)(C)c1ccc(OCCCN2CCCCC2)cc1` [DL76, 1-(3-(4-tert-butylphenoxy)propyl)piperidine]?
toxic effect against SH-SY5Y cells [1]: no toxic effect; reduction of haloperidol-induced catalepsy ([2]; 25 mg/kg body weight): not reduced; Times of Observation of Catalepsy (s), 0 min ([2]; 25 mg/kg i.p.): 19.5 ± 4.2 s; Times of Observation of Catalepsy (s), 3 min ([2]; 25 mg/kg i.p.): 26.5 ± 3.5 s; Times of Observation of Catalepsy (s), 6 min ([2]; 25 mg/kg i.p.): 30.0 ± 0 s; duration of catalepsy (versus control 25.8) ([2]; 50 mg/kg body weight): 16.4; reduction of the duration of catalepsy compared to the control group ([2]; 50 mg/kg body weight): 36.4%; Times of Observation of Catalepsy (s), 0 min ([2]; 50 mg/kg i.p.): 13.8 ± 5.9 s; Times of Observation of Catalepsy (s), 3 min ([2]; 50 mg/kg i.p.): 13.5 ± 4.2 s; Times of Observation of Catalepsy (s), 6 min ([2]; 50 mg/kg i.p.): 22.0 ± 5.0 s; duration of catalepsy (versus control 19.25) ([3]; 25 mg/kg body weight): 8.75; reduction of the duration of catalepsy compared to the control group ([3]; 25 mg/kg body weight, not statistically significant): 54.5%; Times of Observation of Catalepsy (s), 0 min ([3]; 25 mg/kg): 0.66 ± 0.68 s; Times of Observation of Catalepsy (s), 3 min ([3]; 25 mg/kg): 10.6 ± 6.1 s; Times of Observation of Catalepsy (s), 6 min ([3]; 25 mg/kg): 15.0 ± 6.7 s; duration of catalepsy (versus control 19.25) ([3]; 50 mg/kg body weight): 0.053; reduction of the duration of catalepsy compared to the control group ([3]; 50 mg/kg body weight, statistically significant): 99.7%; Times of Observation of Catalepsy (s), 0 min ([3]; 50 mg/kg): 0 ± 0 s; Times of Observation of Catalepsy (s), 3 min ([3]; 50 mg/kg): 0 ± 0 s; Times of Observation of Catalepsy (s), 6 min ([3]; 50 mg/kg): 0.16 ± 0.4 s; IC20 (hMAO B; [5]): 7 nM; IC80 (hMAO B; [5]): 164 nM; IC50 (hMAO B; mean ± SEM of 2-5 independent experiments, p-tyramine 200 μM): 48 ± 15 nM; cell survival of H2O2-damaged SH-SY5Y cells (neuroprotection) ([4]; 10 µM): no increase of cell survival; cell survival of H2O2-damaged SH-SY5Y cells (neuroprotection) ([4]; 50 µM): no increase of cell survival
